We go through 5 compounds from publication PMC6099102, “Effect of the Nature of Donor Atoms on the Thermodynamic, Kinetic and Relaxation Properties of Mn(II) Complexes Formed With Some Trisubstituted 12-Membered Macrocyclic Ligands” (Frontiers in Chemistry, 2018).

Values joined by “and” are separate entries in the source; they are usually repeats but may differ in a detail not shown here. Identical values can stand only once.

Data set [1] is described as follows: Dissociation kinetics of the Mn(II) complexes (acid catalyzed dissociation, metal or ligand exchange reactions). In kind it is physicochemical. Conditions: I = 0.15 M NaCl, 25 °C. On the procedure:
The dissociation reactions were followed by UV-vis spectrophotometry at 269 nm for the pyclen derivatives or at 300 nm for other complexes in the pH range of 3.6–5.0 for the exchange reactions with Cu(II) and up to pH = 6.0 when Zn(II) was used as a ligand scavenger. The acid catalyzed dissociation reactions were performed in the HCl concentration range of 0.05–1.0 M. The concentration of the complexes in the samples was 0.25 mM, while the concentration of the exchanging metal ion in the metal initiated transchelation reactions was 10–40 times higher to ensure pseudo-first-order conditions. Relaxometry was used to follow the transchelation reactions of [Mn(DOTAM)]^2+, [Mn(DO3AM^H)]^2+, [Mn(DO3A)]^−, [Mn(PCTA)]^− and [Mn(ODO3A)]^− with Cu(II)/Zn(II) ions in the pH range of 3.6–5.5 (Figures S17–S19 in Supplementary Material). The concentration of the complexes in these samples was set to 1.0–2.0 mM to achieve relatively large change during the dissociation reaction. […] The temperature was maintained at 25 °C and the ionic strength of the solutions was kept constant at 0.15 M with NaCl. N,N′-dimethyl- (DMP) and N-methyl-piperazine (NMP) buffers (log K2H = 4.18 and 4.90 at 25 °C and I = 0.15 M NaCl, respectively) were used at 0.05 M concentration to keep the pH constant. The pseudo-first-order rate constants (kobs) were calculated by fitting the absorbance or relaxivity-time data pairs to Equation (1) (1) Xt=(X0-Xe)e^-kobst+Xe where Xt, X0, and Xe are the absorbance or relaxivity at time t, at the start and at equilibrium, respectively. The calculations were performed with the computer program Micromath Scientist, version 2.0 (Salt Lake City, UT, USA) using a standard least-squares procedure.
The kinetic inertness of the Mn(II) complexes is the other important parameter for the complexes considered for use in vivo. The inertness of Mn(II) complexes formed with trisubstituted 12-memberd macrocyclic ligands were characterized either by studying the rates of acid catalyzed dissociation or by studying transmetallation reactions occurring between the complexes and a suitable exchanging metal ion such as Zn(II) or Cu(II). The demetallation reactions of labile complexes were performed at high pH by following the ligand exchange reactions with trans-CDTA and DTPA ligands. The demetallation reactions were studied in the presence of a large Cu(II)/Zn(II)/trans-CDTA/DTPA excess or by using high acid concentration in order to ensure pseudo-first-order conditions (Equation 6). Scheme 1 outlines all the possible dissociation pathways for the Mn(II) complexes. […] The reactions of the released Mn(II) and L ligand with the exchanging L' and M' reactants are assumed to be very rapid.
The rate of dissociation can be expressed by the Equation (6), where kobs is the pseudo-first-order rate constant and [Mn(L)]t is the total concentration of the species containing [Mn(L)] complex. The [Mn(L)]t will differ slightly depending on the experimental conditions (in the presence of a large metal or ligand excess). As [Mn(L)]t = [Mn(L)] + [Mn(HL)] + [Mn(H2L)] + [Mn(L)M] + [Mn(L)(L')] + [Mn(HL)(L')] for reactions performed at high pH (in the pH range of 3.0–5.0 often applied in Cu(II) exchange reactions) will involve fewer protonated species while the acid catalyzed dissociation reactions run in the strongly acidic media (0.1–1.0 M acid concentration range) predominantly contain protonated species ([Mn(L)]t = [Mn(L)]+[Mn(HL)]+[Mn(H2L)]). (6) -d[MnL]t/dt=kobs[MnL]t
By taking into account the various complex species and the possible reaction pathways as well as the protonation and stability constants of the reactive intermediates, the following equation (Equation 7) can be derived to describe the rates of dissociation. […]

Data set [2] in a line: Protonation constants of the ligands by pH-potentiometric titration. Conditions: I = 0.15 M NaCl, 25 °C; for Σ log K2H: log K1H + log K2H. In kind it is physicochemical. On the procedure: The concentration of the ligand solutions was determined by pH-potentiometric titration in the presence and absence of an excess (5–10 fold) of MnCl2. For determining the protonation constants of the investigated ligands, pH-potentiometric titrations were made by means of 0.2 M standardized NaOH in 2 and 3 mM ligand solutions in the pH-range of 1.75–11.85. All equilibrium measurements were performed at a constant 0.15 M NaCl ionic strength at 25 °C. The protonation and the stability constants of the Mn(II) complexes were determined by pH-potentiometric titrations (DOTP, DO3A, PCTA, ODO3A, DO3P) while owing to the slow formation rates of Mn(II) complexes formed with amide type ligands, the stability constants of DOTAM, DOTMA, DO3AM^H, PC3AM^H, PC3AM^Gly, PC3AM^Pip complexes were determined by out-of-cell pH-potentiomertry in combination with ^1H relaxometry. The metal-to-ligand concentration ratio in the solutions was 1:1. For the calculation of protonation constants of the ligands and the log KMnL and log KMnLHi values of the complexes, mL–pH data pairs (50–180), obtained in the pH range of 1.75–11.85 or r1obs-pH data pairs (10–15 batch samples) obtained in the pH range of 2–4.5 were used (the samples were equilibrated for 4–7 days). The equilibrium constants characterizing the deprotonation that occurs at basic pH were determined from the data obtained via direct pH-potentiometric titrations performed on the pre-formed complexes.
The pH-potentiometric titrations were carried out with a Methrohm 888 Titrando titration workstation using a Metrohm-6.0233.100 combined electrode. The samples (6.00 mL) were thermostated at 25 °C. The samples were stirred and kept under inert gas (N2) to avoid the effect of CO2. KH-phthalate (pH = 4.005) and borax (pH = 9.177) buffers were used for the pH-calibration. The method proposed by Irving et al. was used for the calculation of H^+ concentrations from the measured pH values (Irving et al., [1967]). A 0.01 M HCl (I = 0.15 M set with NaCl) solution was titrated with standardized NaOH solution of known concentration (approx. 0.2 M). The correction factor obtained as difference of calculated pH and measured pH values was used to calculate the [H^+] in the samples. The ionic product of water was determined from the same titrations (HCl/NaOH) from the data collected in the pH range of 11.20–11.85.
The protonation and complexation equilibria of the macrocyclic ligands and their Mn(II) complexes have been studied by pH-potentiometric and relaxometric methods in the presence of 0.15 M NaCl whose ionic strength mimics the physiological conditions. The protonation constants of the ligands were evaluated by fitting the pH-V(mL) base data pairs collected in the pH-potentiometric titrations. The protonation equilibria of the ligands can be described by Equation (2). (a comparison of previously published log K^H data available in the Supplementary Material) together with the constants of H4DOTA, cis- and trans-H2DO2A derivatives given for comparison. (2) KiH=[HiL]/[Hi-1L][H^+],i=1,2,…

Consider `O=C(O)CN1CCN(CC(=O)O)Cc2cccc(n2)CN(CC(=O)O)CC1` [PCTA], for which the “k1 (proton-assisted dissociation)” value in data set [1] (stopped-flow in highly acidic condition, proton-assisted dissociation of the [Mn(HL)] complex) is 0.112 M⁻¹ s⁻¹ and 0.109 M⁻¹ s⁻¹. In addition, in data set [2] (ligand protonation constant), the “log K1H” value was 9.97 (3), the “log K2H” value is listed as 6.73 (5), the “log K3H” value is reported as 3.22 (6) and the “log K4H” value is listed as 1.40 (9). The “Σ log K2H” value in data set [2] was 16.70.
For the compound `O=C(CN1CCN(CC(=O)N2CCCCC2)Cc2cccc(n2)CN(CC(=O)N2CCCCC2)CC1)N1CCCCC1.[Mn+2]` [[Mn(PC3AM^Pip)]^2+], the “k1 (proton-assisted dissociation)” value in data set [1] is on record as “(4.64 ± 0.04) × 10^−3 M^−1s^−1”. Also, the “t1/2 0.1 M HCl” value in data set [1] (half-life of dissociation calculated for 0.1 M H+) was 25 min.
With `O=C(O)CN1CCNCCN(CC(=O)O)CCN(CC(=O)O)CC1` [DO3A], the “k1 (proton-assisted dissociation)” value in data set [1] amounted to 0.45 M⁻¹ s⁻¹. For the same compound, in data set [2] (ligand protonation constant), the “log K1H” value is 10.07 (5), the “log K2H” value is reported as 8.93 (6), the “log K3H” value is 4.43 (9) and the “log K4H” value was 4.11 (7). In addition, in data set [2] (ligand protonation constant), the “log K5H” value is 1.88 (7). Also, the “Σ log K2H” value in data set [2] is 19.00.
Consider `O=P(O)(O)CN1CCNCCN(CP(=O)(O)O)CCN(CP(=O)(O)O)CC1` [DO3P], for which the “k1 (proton-assisted dissociation)” value in data set [1] (ligand exchange reaction with trans-CDTA^4− or DTPA^5− in the pH range 8-9.5) turned out to be 240000 M⁻¹ s⁻¹. In data set [2] (ligand protonation constant), the “log K1H” value is 12.55 (2), the “log K2H” value is on record as 11.37 (1), the “log K3H” value is given as 8.57 (2) and the “log K4H” value is listed as 7.02(2). Moreover, in data set [2] (ligand protonation constant), the “log K5H” value is reported as 5.36 (2) and the “log K6H” value was 1.84 (2). In data set [2], the “Σ log K2H” value was 23.92.
As for `NC(=O)CN1CCN(CC(N)=O)Cc2cccc(n2)CN(CC(N)=O)CC1` [PC3AM^H], in data set [1], the “k1 (proton-assisted dissociation)” value stood at 0.0107 M⁻¹ s⁻¹. In data set [2] (ligand protonation constant), the “log K1H” value was 8.76 (3) and the “log K2H” value is listed as 4.10 (4). In addition, the “Σ log K2H” value in data set [2] is on record as 12.86.
